Experimental data taken from PubChem BioAssay AID256 (DTP/NCI, 2004).
“And” between values parts separate entries of the source, which are not always exact repeats. Identical values can stand only once. Inconclusive results and toxic doses are left out.

Test system: CD2F1 mice, L1210 leukemia ip, survival T/C
Assay: NCI In Vivo Anticancer Drug Screen. Data for tumor model L1210 Leukemia (intraperitoneal) in CD2F1 (CDF1) mice
Settings: higher = longer survival
Outline: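 Antitumor effect is scored in animals hosting a serially transplanted tumor. Values compare compound-dosed animals against vehicle-only controls as a simple quotient.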

[1] = endpoint: mean survival time, dose: 100.0 mg/kg/injection, schedule: Q01DX001 (ip), vehicle: saline with Tween-80
[2] = endpoint: mean survival time, dose: 200.0 mg/kg/injection, schedule: Q01DX001 (ip), vehicle: saline with Tween-80
[3] = endpoint: mean survival time, dose: 400.0 mg/kg/injection, schedule: Q01DX001 (ip), vehicle: saline with Tween-80
[4] = endpoint: mean survival time, dose: 100.0 mg/kg/injection, schedule: Q04DX003 (ip), vehicle: Klucel (hydroxypropylcellulose) (HPC)
[5] = endpoint: mean survival time, dose: 200.0 mg/kg/injection, schedule: Q04DX003 (ip), vehicle: Klucel (hydroxypropylcellulose) (HPC)
[6] = endpoint: mean survival time, dose: 400.0 mg/kg/injection, schedule: Q04DX003 (ip), vehicle: Klucel (hydroxypropylcellulose) (HPC)
[7] = endpoint: mean survival time, dose: 100.0 mg/kg/injection, schedule: Q04DX002 (ip), vehicle: saline with Tween-80
[8] = endpoint: mean survival time, dose: 100.0 mg/kg/injection, schedule: Q04DX003 (ip), vehicle: saline with Tween-80
[9] = endpoint: mean survival time, dose: 200.0 mg/kg/injection, schedule: Q04DX002 (ip), vehicle: saline with Tween-80
[10] = endpoint: mean survival time, dose: 200.0 mg/kg/injection, schedule: Q04DX003 (ip), vehicle: saline with Tween-80
[11] = endpoint: mean survival time, dose: 400.0 mg/kg/injection, schedule: Q04DX002 (ip), vehicle: saline with Tween-80
[12] = endpoint: mean survival time, dose: 400.0 mg/kg/injection, schedule: Q04DX003 (ip), vehicle: saline with Tween-80
[13] = endpoint: mean survival time, dose: 100.0 mg/kg/injection, schedule: Q01DX009 (ip), vehicle: saline with Tween-80
[14] = endpoint: mean survival time, dose: 200.0 mg/kg/injection, schedule: Q01DX009 (ip), vehicle: saline with Tween-80
[15] = endpoint: mean survival time, dose: 400.0 mg/kg/injection, schedule: Q01DX009 (ip), vehicle: saline with Tween-80

COc1cc(NCc2ccc3nc(N)nc(N)c3c2C)cc(OC)c1OC (tested in a mixture with another compound)
T/C (endpoint: median survival time, dose: 10.0 mg/kg/injection, schedule: Q01DX005 (ip), vehicle: water): 115 % of control

CC([N+](=O)[O-])S(C)(=O)=O (stereo not drawn)
T/C [1]: 97 % of control | T/C [2]: 101 % of control | T/C [3]: 101 % of control

C=CCOc1c(C(=O)OCC)cnc2c1cnn2CC
T/C [4]: 108 % of control | T/C [5]: 108 % of control | T/C [6]: 101 % of control

Nc1ncnc2c1ncn2C1OCC(O)C(O)C1O (stereo not drawn)
T/C (endpoint: mean survival time, dose: 50.0 mg/kg/injection, schedule: Q01DX001 (ip), vehicle: saline): 101 % of control | T/C (endpoint: mean survival time, dose: 100.0 mg/kg/injection, schedule: Q01DX001 (ip), vehicle: saline): 102 % of control | T/C (endpoint: mean survival time, dose: 200.0 mg/kg/injection, schedule: Q01DX001 (ip), vehicle: saline): 101 % of control | T/C (endpoint: mean survival time, dose: 400.0 mg/kg/injection, schedule: Q01DX001 (ip), vehicle: saline): 98 % of control

CCOC(=O)Cc1nc2ccccc2[nH]1
T/C [1]: 95 % of control | T/C [7]: 101 % of control | T/C [8]: 90 % of control and 102 % of control | T/C [2]: 95 % of control | T/C [9]: 93 % of control | T/C [10]: 93 % of control and 97 % of control | T/C [3]: 93 % of control | T/C [11]: 95 % of control | T/C [12]: 91 % of control

O=[N+]([O-])c1ccc(C(O)(c2ccc([N+](=O)[O-])cc2)c2ccc([N+](=O)[O-])cc2)cc1
T/C [13]: 96 % of control | T/C [8]: 98 % of control | T/C [14]: 95 % of control | T/C [10]: 97 % of control | T/C [15]: 96 % of control | T/C [12]: 97 % of control

COc1cc([N+](=O)[O-])ccc1NC(=O)NCc1ccccc1
T/C (endpoint: mean survival time, dose: 50.0 mg/kg/injection, schedule: Q04DX002 (ip), vehicle: saline with Tween-80): 89 % of control and 94 % of control | T/C [13]: 100 % of control | T/C [7]: 88 % of control and 96 % of control and 97 % of control | T/C [14]: 95 % of control | T/C [9]: 93 % of control and 105 % of control | T/C [15]: 103 % of control | T/C [11]: 93 % of control

c1ccc2c(c1)nnc1ccccc12
T/C [13]: 100 % of control | T/C [14]: 110 % of control | T/C [15]: 110 % of control

Cc1ccc(S(=O)(=O)OCC2CC=CCC2COS(=O)(=O)c2ccc(C)cc2)cc1 (stereo not drawn)
T/C (endpoint: mean survival time, dose: 50.0 mg/kg/injection, schedule: Q04DX003 (ip), vehicle: saline): 102 % of control | T/C (endpoint: mean survival time, dose: 100.0 mg/kg/injection, schedule: Q04DX003 (ip), vehicle: saline): 96 % of control | T/C (endpoint: mean survival time, dose: 200.0 mg/kg/injection, schedule: Q04DX003 (ip), vehicle: saline): 91 % of control

O=C(NC/C(Br)=C/Br)Nc1cccc2c1CCCC2
T/C [8]: 96 % of control | T/C [10]: 101 % of control | T/C [12]: 90 % of control

CC1(CO)CCCC2(C)C3=C(CCCC3)CCC12 (stereo not drawn)
T/C (endpoint: mean survival time, dose: 50.0 mg/kg/injection, schedule: Q04DX003 (ip), vehicle: saline with Tween-80): 97 % of control | T/C [8]: 101 % of control | T/C [10]: 97 % of control

COc1ccc(S(=O)(=O)F)cc1NC(=O)COc1cccc(Cl)c1
T/C [8]: 96 % of control | T/C [10]: 97 % of control | T/C [12]: 103 % of control

CC(=O)[O][Hg][CH]1CCCCC1O (stereo not drawn)
T/C (endpoint: mean survival time, dose: 3.13 mg/kg/injection, schedule: Q01DX009 (ip), vehicle: saline + alcohol): 98 % of control | T/C (endpoint: mean survival time, dose: 6.25 mg/kg/injection, schedule: Q01DX009 (ip), vehicle: saline + alcohol): 108 % of control

CCCCCCCCCCCCCCCCCCNC(=O)Nc1cccc(OC)c1
T/C [9]: 96 % of control | T/C [11]: 101 % of control

CC(=O)CC(C)=Nc1cccc(Cl)c1
T/C [7]: 98 % of control | T/C [9]: 95 % of control | T/C [11]: 95 % of control

Cc1cn(C2CC3OP(=O)(OCc4ccccc4)OCC3O2)c(=O)[nH]c1=O (stereo not drawn)
T/C (endpoint: median survival time, dose: 12.5 mg/kg/injection, schedule: Q01DX005 (ip), vehicle: distilled water + Tween-80): 100 % of control | T/C (endpoint: median survival time, dose: 25.0 mg/kg/injection, schedule: Q01DX005 (ip), vehicle: distilled water + Tween-80): 101 % of control | T/C (endpoint: median survival time, dose: 50.0 mg/kg/injection, schedule: Q01DX005 (ip), vehicle: distilled water + Tween-80): 102 % of control | T/C (endpoint: median survival time, dose: 100.0 mg/kg/injection, schedule: Q01DX005 (ip), vehicle: distilled water + Tween-80): 104 % of control | T/C (endpoint: median survival time, dose: 200.0 mg/kg/injection, schedule: Q01DX005 (ip), vehicle: distilled water + Tween-80): 98 % of control

Cc1cnc(/C=N\NC(N)=S)c2cccc(N)c12
T/C (endpoint: mean survival time, dose: 3.13 mg/kg/injection, schedule: Q01DX009 (ip), vehicle: Klucel (hydroxypropylcellulose) (HPC)): 124 % of control | T/C (endpoint: mean survival time, dose: 3.13 mg/kg/injection, schedule: Q01DX009 (ip), vehicle: saline with Tween-80): 122 % of control | T/C (endpoint: mean survival time, dose: 5.4 mg/kg/injection, schedule: Q03HX024 (ip), vehicle: Klucel (hydroxypropylcellulose) (HPC)): 123 % of control | T/C (endpoint: mean survival time, dose: 8.0 mg/kg/injection, schedule: Q03HX024 (ip), vehicle: Klucel (hydroxypropylcellulose) (HPC)): 151 % of control | T/C (endpoint: mean survival time, dose: 12.0 mg/kg/injection, schedule: Q03HX024 (ip), vehicle: Klucel (hydroxypropylcellulose) (HPC)): 112 % of control | T/C (endpoint: mean survival time, dose: 25.0 mg/kg/injection, schedule: Q01DX009 (ip), vehicle: Klucel (hydroxypropylcellulose) (HPC)): 168 % of control | T/C (endpoint: mean survival time, dose: 50.0 mg/kg/injection, schedule: Q01DX009 (ip), vehicle: Klucel (hydroxypropylcellulose) (HPC)): 89 % of control | T/C (endpoint: median survival time, dose: 3.89 mg/kg/injection, schedule: Q01DX005 (ip), vehicle: other): 114 % of control | T/C (endpoint: median survival time, dose: 6.48 mg/kg/injection, schedule: Q01DX005 (ip), vehicle: other): 122 % of control

O=C1C=CC(=O)N1c1ccccc1N1C(=O)C=CC1=O
T/C (endpoint: mean survival time, dose: 1.25 mg/kg/injection, schedule: Q01DX009 (ip), vehicle: Klucel (hydroxypropylcellulose) (HPC)): 90 % of control | T/C (endpoint: mean survival time, dose: 2.5 mg/kg/injection, schedule: Q01DX009 (ip), vehicle: Klucel (hydroxypropylcellulose) (HPC)): 94 % of control

N#CC(NCc1ccccc1)c1ccc2c(c1)OCO2 (stereo not drawn)
T/C (endpoint: mean survival time, dose: 50.0 mg/kg/injection, schedule: Q01DX009 (ip), vehicle: saline with Tween-80): 98 % of control | T/C [13]: 90 % of control | T/C [8]: 99 % of control | T/C [10]: 108 % of control

C(=N\N(c1ccccc1)c1ccccc1)/c1ccc(/C=N/N(c2ccccc2)c2ccccc2)cc1
T/C [4]: 97 % of control | T/C [5]: 95 % of control | T/C [6]: 95 % of control

O=P(OCCCO)(N1CC1)N1CC1
T/C (endpoint: mean survival time, dose: 25.0 mg/kg/injection, schedule: Q01DX001 (ip), vehicle: other): 101 % of control | T/C (endpoint: mean survival time, dose: 50.0 mg/kg/injection, schedule: Q01DX001 (ip), vehicle: other): 101 % of control | T/C (endpoint: mean survival time, dose: 100.0 mg/kg/injection, schedule: Q01DX001 (ip), vehicle: other): 102 % of control | T/C (endpoint: mean survival time, dose: 200.0 mg/kg/injection, schedule: Q01DX001 (ip), vehicle: other): 98 % of control | T/C (endpoint: mean survival time, dose: 400.0 mg/kg/injection, schedule: Q01DX001 (ip), vehicle: other): 96 % of control

Cc1cn(C2CC(O)C(CO)O2)c(=O)nc1N1CCCC1 (stereo not drawn)
T/C (endpoint: median survival time, dose: 12.5 mg/kg/injection, schedule: Q01DX005 (ip), vehicle: water): 103 % of control | T/C (endpoint: median survival time, dose: 25.0 mg/kg/injection, schedule: Q01DX005 (ip), vehicle: water): 108 % of control | T/C (endpoint: median survival time, dose: 50.0 mg/kg/injection, schedule: Q01DX005 (ip), vehicle: water): 102 % of control | T/C (endpoint: median survival time, dose: 100.0 mg/kg/injection, schedule: Q01DX005 (ip), vehicle: water): 101 % of control | T/C (endpoint: median survival time, dose: 200.0 mg/kg/injection, schedule: Q01DX005 (ip), vehicle: water): 102 % of control
